Laboratory results from paper PMC13083723 (Patterns, 2026).
Counter-ions that a name gives are not always drawn. Like-named read-outs stand apart in the source and are kept apart here.

Key:
A549-ACE2 cells = test: cells; type: cell-based; conditions: for activation at 10 µM: A549-ACE2, 24 h, read-out: PLD_Effect(%) A549-ACE2
[1] = cited from earlier work
Vero-E6 cells = test: cells; type: cell-based; conditions: for activation at 10 µM: Chlorocebus sabaeus, Vero C1008, 24 h
[2] = read-out: PLD_Effect(%) VERO-E6

Compound	activation at 10 µM (A549-ACE2 cells) [%]	activation at 10 µM (Vero-E6 cells; [2]) [%]	activation at 10 µM (Vero-E6 cells; read-out: PL_Result) [%]	other results
CCCCCCCCC(=O)N[C@H](CN1CCCC1)[C@H](O)c1ccc2c(c1)OCCO2 [Genz-123346 (free base)]	81.6	63.4		IC50 ([1]; read-out: IC50 (value)): 9 nM; pchembl_value (IC50) ([1]; value is the negative log10 of mol/L): 8.05
CC(COc1ccccc1Cc1ccccc1)N1CCCCC1 (centres unmarked) [Benproperine Phosphate]	81.6	72		
CC(=O)c1ccc2c(c1)N(CCCN1CCN(CCO)CC1)c1ccccc1S2 [ACETOPHENAZINE MALEATE]	52.6	74.4		
CCSc1ccc2c(c1)N(CCCN1CCN(C)CC1)c1ccccc1S2 [thiethylperazine]	98	59.1		
O=C(O[C@H]1CN2CCC1CC2)N(Cc1cc(F)c(F)c(F)c1)c1cccc(F)c1 [Tarafenacin (D-tartrate)]	91.5	71.4		
O=C(CN1C2=NCCN2c2ccccc21)c1ccc(-c2ccccc2)cc1 [CCT-031374]	69.9	53.9		
CCc1cc(Cl)c(OC)c(C(=O)NC[C@@H]2CCCN2CC)c1O [eticlopride, reference compound]				result_KI (A549-ACE2 cells): 92.2773 percent effect; result_ITMP (Vero-E6 cells): 41.39 percent effect
O=C(NCCN1CCC2(CC1)C(=O)NCN2c1cccc(F)c1)c1ccc(F)c(F)c1 [ML-298]	97	60.1		
CCCCN(CCCC)CCC(O)c1cc2c(Cl)cc(Cl)cc2c2cc(C(F)(F)F)ccc12 (centres unmarked) [Halofantrine?HCl]	77.7	68.8		
COc1ccc2[nH]c3c(-c4cccc5ccccc45)nccc3c2c1 [SP-141, reference compound]				result_KI (A549-ACE2 cells): -11.253 percent effect; result_ITMP (Vero-E6 cells): 16.13 percent effect
CN(C)CCCN1c2ccccc2Sc2ccc(C(F)(F)F)cc21 [TRIFLUPROMAZINE HYDROCHLORIDE]				AC50 ([1]; read-out: AC50 (value)): 3 nM
CN(CCc1ccc(Cl)c(Cl)c1)CCN1CCCC1 [BD-1008]	62.5	51.3		
O=C1NC(=O)c2cc(Nc3ccccc3)c(Nc3ccccc3)cc21 [CGP-52411, reference compound]			-10.9	result_KI (A549-ACE2 cells): -10.8674 percent effect; result_ITMP (Vero-E6 cells): -7.23 percent effect
O=C(Nc1ncc(SCCN2CCCC2)s1)[C@]1(c2ccc(S(=O)(=O)C3CC3)cc2)C[C@H]1C1CCCCC1 [LY2608204]	95.6	55.8		
CN1CCN(C2=Cc3ccccc3Oc3ccc(Cl)cc32)CC1 [2-CMDO]	92.5	61.3		
CN1CC2c3ccccc3Oc3ccc(Cl)cc3C2C1 (centres unmarked) [asenapine maleate]	66.1	65.2		
CCC(C)CNCC(=O)N1CCc2sccc2C1COc1cccc(C)c1 (centres unmarked) [RU-SKI-43]	85.5	57.8		
C[C@H](N)Cn1ccc2cc(F)c(Cl)cc21 [Ro-60-0175 fumarate]	82.7	50.7		
O[C@H]([C@H](O)[C@@H]1CO1)[C@H]1CO1 [VAL-083, reference compound]				result_KI (A549-ACE2 cells): -10.5072 percent effect; result_ITMP (Vero-E6 cells): -1.6 percent effect
Cc1[nH]c2ccc(Cl)cc2c1C1=CCNCC1 [EMD-386088]	79.1	96.8		

Compound	activation at 10 µM (A549-ACE2 cells) [%]	activation at 10 µM (Vero-E6 cells; [2]) [%]	activation at 10 µM (Vero-E6 cells; read-out: PL_Result) [%]	other results
COc1cc(CN(CCN)C(=O)c2cccs2)ccc1OCc1ccccc1 [M8-B]	72.2	85.4		
COc1cccc(CCc2ccccc2OCC[C@@H]2C[C@@H](O)CN2C)c1 [R-96544]	92.6	90.4		
Cc1nc2ccc(Oc3ccc(F)cc3)cc2c(=O)n1C[C@H]1CCCN(C(C)C)C1 [YIL-781]	52.7	56.3		
CCn1c2ccccc2c2cc(CNCc3ccccc3OC)ccc21 [HLCL-61 (hydrochloride)]	83	56.5		
CN(C)CCCOc1nn(Cc2ccccc2)c2ccccc12 [BENZYDAMINE HYDROCHLORIDE]	65.2	51.2		
c1ccc2c(CCNc3ccc(Nc4ccncc4)cc3)c[nH]c2c1 [JNJ 26854165 (Serdemetan)]	88.4	74		
COc1cc2c(cc1O)C(CCc1ccc(Cl)cc1)N(C)CC2 (centres unmarked) [Ro-04-5595]	61	64		
Clc1ccc2c(c1)N=C(N1CCNCC1)c1ccccc1N2 [desmethylclozapine]	89.5	77.7		
C=C(C)[C@@H]1CC[C@]2(C(=O)O)CC[C@]3(C)[C@H](CC[C@@H]4[C@@]5(C)CC[C@H](O)C(C)(C)[C@@H]5CC[C@]43C)[C@@H]12 [SPE_K45401373]			-11.4	
Cc1cccc(NC(=O)c2ccc(C(F)(F)F)cc2C(=O)O)n1 [SPE_K47816470]			-2.17	
CN1CCN(CCc2ccc(Cl)c(Cl)c2)CC1 [SPE_K29668683]			11.7	
OCc1cc([C@@H](O)CNCCCCCCOCCOCc2c(Cl)cccc2Cl)ccc1O [SPE_M36487418]			28.8	
Nc1c(S(=O)(=O)O)cc(Nc2cccc3ccccc23)c2c1C(=O)c1ccccc1C2=O [SPE_K71266197]			-13.9	
CCC(Oc1ccc(Cl)cc1)C(=O)OC1CC2CCC(C1)N2C (centres unmarked) [SPE_A92933783]			-0.394	
Ac-PHSCN-NH2 [SPE_K00521308]				PL_Result (Vero-E6 cells): -0.965
CCCN(C/C=C/I)C1CCc2cccc(O)c2C1 (centres unmarked) [SPE_A60594020]			6.75	
CC(C)Nc1nc2cc(Cl)c(Cl)cc2n1[C@H]1O[C@@H](CO)[C@H](O)[C@@H]1O [SPE_K59524082]			-6.13	
NC[C@@H]1CC[C@@H](N)[C@@H](O[C@H]2[C@H](O)[C@@H](O[C@H]3O[C@H](CO)[C@@H](O)[C@H](N)[C@H]3O)[C@H](N)C[C@@H]2N)O1 [SPE_K48427910]			-9.88	
CC(CCc1ccccc1)NC(C)C(O)c1ccc(O)cc1 (centres unmarked) [SPE_A36267905]			-4.99	
N#Cc1c(Oc2ccc(F)c(NC(=O)Cc3cccc(C(F)(F)F)c3)c2)ccc2nc(NC(=O)C3CC3)sc12 [SPE_K31866293]			1.45	

Compound	activation at 10 µM (A549-ACE2 cells) [%]	activation at 10 µM (Vero-E6 cells; [2]) [%]	activation at 10 µM (Vero-E6 cells; read-out: PL_Result) [%]	other results
Cc1c(-c2ccnn2C)cc(C(=O)NCc2ccc(S(C)(=O)=O)cn2)c(=O)n1-c1cccc(C(F)(F)F)c1 [SPE_K31476763]			-9.37	
COc1cc(OC)c(OC)cc1C=O [SPE_K88219015]			-0.692	
CC(CCCCC(=O)Nc1ccc(C(F)(F)F)cc1)NCCc1c[nH]cn1 (centres unmarked) [SPE_A66435872]			38.2	
CCn1c2ccccc2c2cc(CNC)ccc21 [PhiKan-083]	83.6	73.3		
COc1nccc(-c2c(-c3ccc(F)cc3)ncn2C2CCNCC2)n1 [SPE_K19412355]			14.6	
N=C(N)NC(=O)c1cnccn1 [SPE_K61693562]			-1.49	
COc1ccc(OC)c(C2C(C#N)=C(N)Oc3[nH]nc(-c4ccc5ccccc5c4)c32)c1 (centres unmarked) [SPE_A67036568]			-6.11	
Clc1ccc(C(OCCN2CCCCC2)c2ccccc2)cc1 (centres unmarked) [SPE_A80908310]			72.5	
CNCCc1c[nH]cn1 [SPE_K64422603]			-17.3	
C[C@@H](O[C@H]1OCCN(Cc2nn[nH]c2CN(C)C)[C@H]1c1ccc(F)cc1)c1cc(C(F)(F)F)cc(C(F)(F)F)c1 [L-760735]	107	71.2		
CCN(CC)C(=O)N1CCN(C)CC1 [SPE_K45542189]			3.18	
CCN(CC)Cc1ccc(C(=O)N(CCc2ccccc2OC)[C@@H]2CCNC2)cc1 [SPE_K11821338]			-4.98	
CC(=O)Nc1nc(C)c(-c2ccc(Cl)c(S(=O)(=O)NCCO)c2)s1 [SPE_K29395450]			-9.8	
Oc1cc(O)c2c(c1)O[C@H](c1ccc(O)c(O)c1)[C@@H](O)C2 [SPE_K58736316]			-12.2	
CC(C)[C@]12O[C@H]1[C@@H]1O[C@]13[C@]1(O[C@H]1C[C@H]1C4=C(CC[C@@]13C)C(=O)OC4)[C@@H]2O [SPE_K81258678]			-5.53	
CN1CC[C@@H](c2c(O)cc(O)c3c(=O)cc(-c4ccccc4Cl)oc23)[C@@H]1CO [SPE_K51791723]			1.15	
CCOC(=O)[C@@H](N)Cc1ccc(O)c(O)c1 [SPE_K90982969]			-3.7	
CCCCc1nc(C)c(CC(=S)N(C)C)c(=O)n1Cc1ccc(-c2ccccc2-c2nnn[nH]2)cc1 [SPE_K21586122]			-5.47	
O=C(Cc1ccc(-c2ccc(OCCN3CCOCC3)cc2)cn1)NCc1ccccc1 [SPE_K29968218]			-4.21	
CC(C)[C@H](CO)Nc1nc(Nc2ccc(C(=O)O)c(Cl)c2)c2ncn(C(C)C)c2n1 [SPE_K41564320]			1.13	
